Tested on: PR1 gene
Assay: PR1 gene expression by real-time PCR in rosette leaves of wild-type strain and bil3 mutant, treated or untreated with brassinolide
Type: in vivo, Arabidopsis thaliana
Settings: BL-treated bil3 mutant (BIL3 gene-overexpressing), compared with the wild-type strain; FIG. 7
Method: Individuals of the wild-type strain and the bil3 mutant grown in the same way as in Example 1 were treated or untreated with brassinolide (BL), one type of BR, to prepare samples. Total RNA was extracted from the rosette leaf of each strain using RNeasy Plant Mini Kit (Qiagen N.V.). Next, cDNA was synthesized from the extracted total RNA using PrimeScript First-Strand cDNA Synthesis Kit (Takara Bio Inc.). Specific procedures for the total RNA extraction and the cDNA synthesis followed the protocol included in each kit. Subsequently, the expression of the PR1 gene was analyzed by real-time PCR with the synthesized cDNA as a template using primers PR1-RT-F represented by SEQ ID NO: 46 and PR1-RT-R represented by SEQ ID NO: 47, SYBR Premix EX Taq kit (Takara Bio Inc.) and a real-time PCR apparatus Thermal Cycler Dice (Takara Bio Inc.).

In the case of `CC(C)[C@H](C)[C@@H](O)[C@H](O)[C@@H](C)[C@H]1CC[C@H]2[C@@H]3COC(=O)[C@H]4C[C@H](O)[C@H](O)C[C@]4(C)[C@H]3CC[C@]12C` [BL, brassinolide], the “expression level of the PR1 gene, relative value with the BL-untreated wild-type strain as 1” value is reported as “approximately 40 times”.

From patent US20140143910A1, “COMPOSITION THAT AUGMENTS PLANT DISEASE RESISTANCE AND/OR BRANCHING” (Riken, priority 2011, published 2014)
